Source: patent publication US10273222B2 (CELGENE QUANTICEL RESEARCH, INC., priority 2013, dated 2019)
pIC50: −log10 of the molar value.

Assays:
Type in all cases: biochemical
FBXL10 = FBXL10 (Homo sapiens (Human), UniProt Q8NHM5); test: FBXL10 in vitro enzyme inhibition assay (AlphaScreen)
How it was run: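 AlphaScreen read-out of H3K36me1 product, detected with anti-H3K36me1 antibody plus streptavidin donor and Protein A acceptor beads (final 10 μg/ml) in 50 mM HEPES pH 7.3, 10 mM NaCl, 0.005% Brij35, 5 mM EDTA, 2 mg/ml BSA. Beads incubated 2 h to overnight at room temperature; IC50 derived from AlphaScreen signal.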

Jarid1B = Jarid1B (Homo sapiens (Human), UniProt Q9UGL1); test: Jarid1B in vitro enzyme inhibition assay (TR-FRET)
JMJD2A = JMJD2A (Homo sapiens (Human), UniProt O75164); test: JMJD2A in vitro enzyme inhibition assay (TR-FRET)
Jarid1A = Jarid1A (Homo sapiens (Human), UniProt P29375); test: Jarid1A in vitro enzyme inhibition assay (TR-FRET)
Source text: The enzymatic assay of Jarid1A activity is based upon Time Resolved-Fluorescence Resonance Energy Transfer (TR-FRET) detection.

JMJD2C = JMJD2C (Homo sapiens (Human), UniProt Q9H3R0); test: JMJD2C in vitro enzyme inhibition assay (TR-FRET)
Chain of JMJD2C (Q9H3R0 2-372): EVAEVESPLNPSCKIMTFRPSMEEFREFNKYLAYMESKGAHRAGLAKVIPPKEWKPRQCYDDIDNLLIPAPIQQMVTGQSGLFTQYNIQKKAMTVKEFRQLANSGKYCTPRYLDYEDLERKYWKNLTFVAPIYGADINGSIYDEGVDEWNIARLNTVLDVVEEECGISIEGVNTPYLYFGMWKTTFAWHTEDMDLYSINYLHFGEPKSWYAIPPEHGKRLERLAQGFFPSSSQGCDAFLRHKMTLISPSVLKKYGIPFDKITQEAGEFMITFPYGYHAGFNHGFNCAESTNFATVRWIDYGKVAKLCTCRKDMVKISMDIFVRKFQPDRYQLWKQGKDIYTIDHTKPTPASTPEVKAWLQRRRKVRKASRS

Chain of FBXL10 (Q8NHM5 1-650): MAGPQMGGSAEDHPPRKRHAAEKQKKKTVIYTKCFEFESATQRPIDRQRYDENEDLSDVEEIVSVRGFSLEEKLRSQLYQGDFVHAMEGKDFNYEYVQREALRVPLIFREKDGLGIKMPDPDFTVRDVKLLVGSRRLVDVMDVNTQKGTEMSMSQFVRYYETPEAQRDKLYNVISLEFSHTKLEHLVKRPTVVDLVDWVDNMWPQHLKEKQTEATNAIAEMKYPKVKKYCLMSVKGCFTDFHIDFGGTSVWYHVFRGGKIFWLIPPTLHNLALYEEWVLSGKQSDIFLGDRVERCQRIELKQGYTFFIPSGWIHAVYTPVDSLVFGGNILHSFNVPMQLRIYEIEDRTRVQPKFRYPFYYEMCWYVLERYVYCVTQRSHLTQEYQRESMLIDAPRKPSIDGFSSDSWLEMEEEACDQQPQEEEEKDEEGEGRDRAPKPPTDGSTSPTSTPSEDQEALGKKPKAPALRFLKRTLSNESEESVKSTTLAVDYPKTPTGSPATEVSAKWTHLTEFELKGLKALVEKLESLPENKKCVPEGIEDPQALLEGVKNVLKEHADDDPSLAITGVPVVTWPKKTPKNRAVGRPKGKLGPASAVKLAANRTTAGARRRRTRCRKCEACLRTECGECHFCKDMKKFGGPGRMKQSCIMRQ
Chain of JMJD2A (O75164 1-350): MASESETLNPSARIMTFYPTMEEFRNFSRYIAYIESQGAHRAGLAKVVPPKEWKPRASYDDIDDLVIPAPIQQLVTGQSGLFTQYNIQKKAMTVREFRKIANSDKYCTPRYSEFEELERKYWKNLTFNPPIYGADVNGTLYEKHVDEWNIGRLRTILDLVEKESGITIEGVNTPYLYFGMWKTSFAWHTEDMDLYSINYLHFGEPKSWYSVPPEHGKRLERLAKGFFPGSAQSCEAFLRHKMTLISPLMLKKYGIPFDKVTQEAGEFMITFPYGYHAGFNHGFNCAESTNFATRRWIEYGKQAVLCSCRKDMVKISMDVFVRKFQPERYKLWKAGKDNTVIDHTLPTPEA
Chain of Jarid1A (P29375 1-1090): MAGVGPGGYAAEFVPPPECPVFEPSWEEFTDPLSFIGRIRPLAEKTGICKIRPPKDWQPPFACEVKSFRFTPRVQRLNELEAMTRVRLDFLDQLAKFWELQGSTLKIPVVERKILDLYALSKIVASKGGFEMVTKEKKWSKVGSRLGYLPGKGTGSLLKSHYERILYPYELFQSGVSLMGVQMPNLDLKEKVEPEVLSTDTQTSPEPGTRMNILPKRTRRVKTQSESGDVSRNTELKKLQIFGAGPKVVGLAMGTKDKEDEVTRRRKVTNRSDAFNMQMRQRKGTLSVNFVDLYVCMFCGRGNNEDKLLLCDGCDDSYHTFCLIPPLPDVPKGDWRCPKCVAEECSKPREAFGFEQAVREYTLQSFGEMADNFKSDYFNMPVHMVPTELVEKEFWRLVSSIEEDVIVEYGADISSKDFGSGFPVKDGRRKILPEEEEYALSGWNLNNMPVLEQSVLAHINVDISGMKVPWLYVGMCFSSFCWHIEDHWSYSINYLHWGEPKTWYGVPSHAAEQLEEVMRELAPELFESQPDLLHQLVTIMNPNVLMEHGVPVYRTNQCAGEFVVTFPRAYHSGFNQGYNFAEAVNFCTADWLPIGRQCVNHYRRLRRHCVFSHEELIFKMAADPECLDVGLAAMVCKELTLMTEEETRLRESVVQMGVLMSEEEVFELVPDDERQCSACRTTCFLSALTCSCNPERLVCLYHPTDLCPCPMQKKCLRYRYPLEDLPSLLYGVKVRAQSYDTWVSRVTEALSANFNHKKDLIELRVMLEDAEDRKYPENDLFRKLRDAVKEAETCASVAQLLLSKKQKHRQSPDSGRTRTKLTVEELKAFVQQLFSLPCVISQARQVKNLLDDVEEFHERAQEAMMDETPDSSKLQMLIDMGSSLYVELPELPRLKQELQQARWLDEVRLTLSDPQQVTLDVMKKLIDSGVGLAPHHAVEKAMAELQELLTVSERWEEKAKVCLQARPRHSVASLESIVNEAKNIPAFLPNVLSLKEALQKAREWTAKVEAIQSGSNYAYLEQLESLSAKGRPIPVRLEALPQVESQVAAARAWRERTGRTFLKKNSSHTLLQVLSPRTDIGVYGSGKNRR
Chain of Jarid1B (Q9UGL1 2-751): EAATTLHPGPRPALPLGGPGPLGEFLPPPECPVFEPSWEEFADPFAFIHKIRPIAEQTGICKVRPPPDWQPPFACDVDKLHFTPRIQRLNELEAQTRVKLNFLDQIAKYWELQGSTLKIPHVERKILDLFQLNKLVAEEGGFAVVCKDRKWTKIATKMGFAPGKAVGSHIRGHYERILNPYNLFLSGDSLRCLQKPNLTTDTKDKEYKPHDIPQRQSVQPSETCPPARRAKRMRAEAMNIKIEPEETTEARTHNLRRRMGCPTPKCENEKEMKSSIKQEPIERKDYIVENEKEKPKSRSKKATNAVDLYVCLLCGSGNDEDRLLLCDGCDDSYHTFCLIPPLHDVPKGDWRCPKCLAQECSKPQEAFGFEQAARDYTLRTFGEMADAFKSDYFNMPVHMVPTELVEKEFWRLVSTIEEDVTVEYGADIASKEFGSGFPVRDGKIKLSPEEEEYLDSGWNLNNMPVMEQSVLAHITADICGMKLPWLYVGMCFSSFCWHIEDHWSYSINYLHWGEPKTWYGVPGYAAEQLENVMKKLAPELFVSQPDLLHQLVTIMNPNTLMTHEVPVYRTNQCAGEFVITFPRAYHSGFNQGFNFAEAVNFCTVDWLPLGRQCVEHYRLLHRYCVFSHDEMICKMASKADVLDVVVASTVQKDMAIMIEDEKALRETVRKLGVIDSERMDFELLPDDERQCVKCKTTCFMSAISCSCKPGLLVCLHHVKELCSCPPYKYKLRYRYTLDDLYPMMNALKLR

| Structure (SMILES) | pIC50 (FBXL10) | pIC50 (Jarid1B) | pIC50 (JMJD2A) | pIC50 (Jarid1A) | pIC50 (JMJD2C) |
| --- | --- | --- | --- | --- | --- |
| O=C(O)c1ccnc(-c2cn(C3CCc4c(F)cccc43)cn2)c1 (stereo not drawn) [Example 110, 2-[1-(4-fluoro-2,3-dihydro-1H-inden-1-yl)imidazol-4-yl]pyridine-4-carboxylic acid] | ≥ 7.00 | ≥ 7.00 | 6.00 to 7.00 | ≥ 7.00 | 6.00 to 7.00 |
| CC(C)C(c1ccccc1)n1cnc(-c2cc(C(=O)O)ccn2)c1 (stereo not drawn) [Example 108, 2-[1-(2-methyl-1-phenylpropyl)imidazol-4-yl]pyridine-4-carboxylic acid] | ≥ 7.00 | ≥ 7.00 | 6.00 to 7.00 | ≥ 7.00 | 6.00 to 7.00 |
| O=C(O)c1ccnc(-c2cn(CCN3CCCC3=O)cn2)c1 [Example 60, 2-{1-[2-(2-oxopyrrolidin-1-yl)ethyl]-1H-imidazol-4-yl}pyridine-4-carboxylic acid] | ≥ 7.00 | ≥ 7.00 | ≥ 7.00 | ≥ 7.00 | 6.00 to 7.00 |
| CCC(c1ccccc1)n1cnc(-c2cc(-c3nn[nH]n3)ccn2)c1 (stereo not drawn) [Example 144, 2-[1-(1-phenylpropyl)imidazol-4-yl]-4-(2H-tetrazol-5-yl)pyridine] | ≥ 7.00 | ≥ 7.00 | < 5.00 | 6.00 to 7.00 | 5.00 to 6.00 |
| FC(F)(F)c1cccc(Cn2cnc(-c3cc(-c4nn[nH]n4)ccn3)c2)c1Cl [Example 154, 2-[1-[[2-chloro-3-(trifluoromethyl)phenyl]methyl]imidazol-4-yl]-4-(2H-tetrazol-5-yl)pyridine] | ≥ 7.00 | ≥ 7.00 | < 5.00 | 6.00 to 7.00 | 5.00 to 6.00 |
| CN(CCn1cnc(-c2cc(C(=O)O)ccn2)c1)Cc1ccc(F)cc1 [Example 38, 2-[1-[2-[(4-fluorophenyl)methyl-methylamino]ethyl]imidazol-4-yl]pyridine-4-carboxylic acid] | ≥ 7.00 | ≥ 7.00 | ≥ 7.00 | ≥ 7.00 | ≥ 7.00 |

The remaining lines, values ahead:

| pIC50 (FBXL10) | pIC50 (Jarid1B) | pIC50 (JMJD2A) | pIC50 (Jarid1A) | pIC50 (JMJD2C) | Structure (SMILES) |
| --- | --- | --- | --- | --- | --- |
| 6.00 to 7.00 | ≥ 7.00 | 6.00 to 7.00 | ≥ 7.00 | 6.00 to 7.00 | O=C(O)c1ccnc(-c2cn(CCN3CCc4cc(F)ccc43)cn2)c1 [Example 91, 2-[1-[2-(5-fluoro-2,3-dihydroindol-1-yl)ethyl]imidazol-4-yl]pyridine-4-carboxylic acid] |
| ≥ 7.00 | ≥ 7.00 | < 5.00 | 6.00 to 7.00 | 5.00 to 6.00 | FC(F)(F)c1ccccc1CCn1cnc(-c2cc(-c3nn[nH]n3)ccn2)c1 [Example 140, 4-(2H-tetrazol-5-yl)-2-[1-[2-[2-(trifluoromethyl)phenyl]ethyl]imidazol-4-yl]pyridine] |
| 6.00 to 7.00 | ≥ 7.00 | 5.00 to 6.00 | ≥ 7.00 | 6.00 to 7.00 | c1cc(-c2nn[nH]n2)cc(-c2cn(CCN3CCCC3)cn2)n1 [Example 63, 2-{1-[2-(pyrrolidin-1-yl)ethyl]-1H-imidazol-4-yl}-4-(2H-tetrazol-5-yl)pyridine] |
| ≥ 7.00 | ≥ 7.00 | 6.00 to 7.00 | ≥ 7.00 | 6.00 to 7.00 | O=C(O)c1ccnc(-c2cn(CCN3CCCc4cc(Cl)ccc43)cn2)c1 [Example 89, 2-[1-[2-(6-chloro-3,4-dihydro-2H-quinolin-1-yl)ethyl]imidazol-4-yl]pyridine-4-carboxylic acid] |
| ≥ 7.00 | ≥ 7.00 | ≥ 7.00 | ≥ 7.00 | 6.00 to 7.00 | CCC(c1ccccc1)n1cnc(-c2cc(C(=O)O)ccn2)c1 (stereo not drawn) [Example 107, 2-[1-(1-phenylpropyl)imidazol-4-yl]pyridine-4-carboxylic acid] |
| ≥ 7.00 | ≥ 7.00 | < 5.00 | 6.00 to 7.00 | 5.00 to 6.00 | Clc1ccccc1Cn1cnc(-c2cc(-c3nn[nH]n3)ccn2)c1 [Example 129, 2-[1-[(2-chlorophenyl)methyl]imidazol-4-yl]-4-(2H-tetrazol-5-yl)pyridine] |
